Assay results from patent US20250353873A1, “COMPOUNDS AND METHODS FOR MODULATING APOE EXPRESSION” (Ionis Pharmaceuticals, Inc., priority 2024, published 2025).
Strand notation (5' to 3'): a small letter for the sugar, then the base; units joined by * are phosphorothioate-linked, units joined directly phosphodiester-linked; [ ] holds rarer units or linkages, { } end groups; capitals alone tell only the bases. [ms] = mesyl phosphoramidate linkage; e = 2'-O-(2-methoxyethyl) (MOE); [5mC] = 5-methylcytosine; d = 2'-deoxy (DNA)

How the values were obtained:
human APOE RNA [1] = assay: Activity in APOE 1549 knock-in mice, single ICV bolus, 2 weeks (Example 7); format: in vivo; details: single ICV bolus of 300 μg, two weeks post treatment, Table 17
Procedure, shortened: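 Human APOE knock-in mice (model 41549), 2 per group, given a single 300 µg ICV bolus of oligonucleotide, with PBS as control. After 2 weeks, APOE RNA in cortex and spinal cord measured by RT-qPCR, normalized to mouse Ppia, and expressed as % of PBS control.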

human APOE RNA [2] = assay: Activity in APOE C57BL/6NTac-Apoeem7250 knock-in mice, single ICV bolus, 2 weeks (Example 9); format: in vivo; details: single ICV bolus 300 μg
Experimental: Modified oligonucleotides described above were tested in the APOE knock-in mouse model C57BL/6NTac-Apoeem7250_B-A02(APOE)Tac, a heterozygous APOE mouse model. APOE knock-in mice used in this study express the full-length human APOE gene knocked into the mouse locus. Humanization of APOE gene was done via CRISPR/Cas-9-mediated gene editing, allowing for generation of a model with constitutive expression of human APOE gene. Targeting strategy was based on NCBI transcripts NM_009696.4 (mouse) and NM_000041.4 (human). Mouse genomic sequence from exon 1 to exon 4 (including the 5′ and 3′ UTRs) was replaced with the human counterpart from 141 bp upstream of exon 1 to 28 bp downstream of exon 4. A plasmid allowing expression of Cas9 mRNA, specific gRNA, and the puromycin resistance cassette, and a plasmid containing the homology regions of the mouse APOE gene, and the replaced human region were co-transfected into the Taconic Biosciences C57BL/6N Tac ES cell line. Homologous recombination clones were isolated using positive puromycin selection, and humanized allele was obtained after Cas9-mediated gene editing. C57BL/6NTac-Apoeem7250_B-A02(APOE)Tac mice were used in the in vivo experiments described below.
APOE C57BL/6NTac-Apoeem7250 knock-in mice were divided into groups of 3 mice each. Each mouse received a single ICV bolus of 300 μg of modified oligonucleotide. A group of 3 mice received a single ICV bolus with PBS as a negative control.
Two weeks post treatment, mice were sacrificed and RNA was extracted from cortical brain tissue and spinal cord for quantitative real-time RT-PCR analysis of RNA expression of APOE using human primer probe set RTS3073 (described herein above). APOE RNA levels were normalized to mouse Ppia. Mouse Ppia was amplified using primer probe set m_cyclo24 (described herein above). Results are presented as percent human APOE RNA relative to the amount of human APOE RNA in PBS treated animals, (% control).

1693105: 6-10-4 MOE gapmer CTTGGTGAATCTTTATTAAA, linkages sosssszzzssssszssss (e[5mC]*eTeT*eG*eG*eT*dG[ms]dA[ms]dA[ms]dT*d[5mC]*dT*dT*dT*dA[ms]dT*eT*eA*eA*eA) [compound 1693105]
APOE RNA (% control) Cortex (human APOE RNA [1]; cortex): 51 % control
APOE RNA (% control) Spinal Cord (human APOE RNA [1]; spinal cord): 38 % control
APOE RNA (% control) Cortex (human APOE RNA [2]; Cortex): 65 % control
APOE RNA (% control) Spinal Cord (human APOE RNA [2]; Spinal Cord): 54 % control
